{"source": "paper PMC5149029", "about": "“New Aspects of Silibinin Stereoisomers and their 3-O-galloyl Derivatives on Cytotoxicity and Ceramide Metabolism in Hep G2 hepatocarcinoma Cell Line” (Iranian Journal of Pharmaceutical Research : IJPR, 2016)", "key": {"Acid ceramidase (ACDase)": {"target": "T1, Acid ceramidase (ACDase) (Homo sapiens, UniProt Q13510)", "T1 construct": "endogenous in cells; host or cells: Hep G2", "T1 sequence (Q13510 22-395)": "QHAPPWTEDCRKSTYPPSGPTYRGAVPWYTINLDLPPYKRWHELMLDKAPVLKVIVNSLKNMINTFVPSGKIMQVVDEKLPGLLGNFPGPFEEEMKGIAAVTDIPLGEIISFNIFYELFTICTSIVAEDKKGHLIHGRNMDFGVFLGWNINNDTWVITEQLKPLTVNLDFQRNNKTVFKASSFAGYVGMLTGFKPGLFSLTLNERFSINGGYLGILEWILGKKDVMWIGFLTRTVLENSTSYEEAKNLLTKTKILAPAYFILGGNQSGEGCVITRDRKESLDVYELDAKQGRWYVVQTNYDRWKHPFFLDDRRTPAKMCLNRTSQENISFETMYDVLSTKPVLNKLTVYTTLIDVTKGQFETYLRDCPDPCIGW", "assay": "ACDase activity assay (fluorogenic)", "type": "cell-based", "conditions": "for ACDase activity in cell extract compared to control: Hep G2, 125 µM and higher concentrations", "procedure": "(§1) The cell line was grown in RPMI-1640 medium supplemented with L-glutamine 2 mM, HEPESNa 25 mM, penicillin 100 U/mL, streptomycin 100 μg/mL and 10% […] (FBS) at 37 °C in a humidified atmosphere containing 5% CO2. Hep G2 cells were seeded at 1 × 10^6 cells/mL and sub cultured every 2–3 days after 60–80% confluence was reached. To prepare the lysates cells attached to the culture plate were scraped off with a cell scraper and collected in a 1.5 mL tube by centrifugation. The cell pellets were rinsed with PBS, suspended in sterile water, and then lysed by sonication. For each experiment, the cells were treated separately with increasing concentrations of silibinin derivatives (0, 25, 50, 75, 100, 125, 150, 175 and 200 μM) and incubated for 48 h.\nACDase activity was measured in intact cells and in cell lysates by fluorogenic assays. For intact cell assays, cells (10,000/well) were seeded into 96-well plates in 10% FBS medium. After 24 h, medium was removed and replaced with 5% FBS medium containing indicated concentrations of silibinin derivatives (controls contained ethanol vehicle). Plates were placed in a tissue culture incubator at 37 °C, 5% CO2 for 24 h and cell viability assays were conducted in parallel. Fluorogenic substrate (ethanol vehicle) was then added to a final concentration of 16μM (125 μL final well volume), and the plates were incubated for 3 h at 37 °C, 5% CO2. To complete the assays, 50 μL methanol and 100 μL NaIO4 (2.5 mg/mL) in 0.1 M glycine buffer with a pH of 10.6 were added and the plates were incubated in a dark place for 2 h at 37 °C. Fluorescence was measured in the UV range (365 nm excitation/410–460 nm emission) using a GloMax® multi-detection system (Promega, Madison, WI).\nTo measure ACDase activity in cell lysates, cells were harvested using trypsin/EDTA, washed three times in ice-cold PBS and re-suspended at a concentration of 1 × 10^6 cells/mL in 0.2 M sucrose. After sonication on ice (microtip, 5–10 s), lysates were centrifuged at 20,000 × g at 4 °C for 15 min to remove debris. Protein in the supernatant was measured using the BCA assay (Pierce Products, Thermo Scientific, Rockford, IL) and bovine serum albumin standard curves. Supernatant protein (60 μg) was added to 96-well plates containing the indicated compounds and sodium acetate–acetic acid buffer, pH 4.5 (25 mM), and incubated for 1 h at 37 °C, in final well volume of 100 μL. Fluorescent substrate was added to a final concentration of 40 μM (125 μL total well volume), and the assay was incubated in the dark at 37 °C for 3 h. Fluorescence was then measured as described above ([23])."}, "caspase-9": {"tested_on": "caspase-9", "assay": "Caspase-9 activity, colorimetric substrate Ac-LEHD-pNA", "type": "cell-based, human", "conditions": "Hep G2, 48 h, control 0.26", "procedure": "as §1\nThe activities of caspase-3 and 9 were measured using colorimetric substrates. Cells were added to a lysis buffer (100 mM HEPES [pH 7.5], 0.1% CHAPS, 1 mM PMSF, 10 mM MDTT, 1 mM EDTA) and placed on ice for 30 min. After the cells were centrifuged at 10,000 × g for 10 min at 4 °C, 50 μg of protein from the supernatants was added to each of the caspase substrates. The colorimetric substrates for caspase-3 and 9 were Ac-DEVD-pNA (Asp-Glu-Val-Asp-pNA) and Ac-LEHD-pNA (N-acetyl-Leu-Glu-His-Asp-pNA), respectively. After a 2 h incubation, to measure p-nitroanilide absorbance was determined at 405 nm ([34])."}}}
{"smiles": "COc1cc([C@@H]2Oc3cc([C@H]4Oc5cc(O)cc(O)c5C(=O)[C@@H]4OC(=O)c4cc(O)c(O)c(O)c4)ccc3O[C@H]2CO)ccc1O", "note": "[SGB, 3-O-galloyl silybin B]", "values": [{"measurement": "ACDase activity in cell extract compared to control", "setting": "Acid ceramidase (ACDase)", "result": "markedly inhibited"}, {"measurement": "Caspase-9 (ΔOD 405nm)", "setting": "caspase-9; 25 micro molar", "result": "0.30 ± 0.048 ΔOD 405nm"}, {"measurement": "Caspase-9 (ΔOD 405nm)", "setting": "caspase-9; 50 micro molar", "result": "0.41 ± 0.053 ΔOD 405nm"}, {"measurement": "Caspase-9 (ΔOD 405nm)", "setting": "caspase-9; 75 micro molar", "result": "0.46 ± 0.046 ΔOD 405nm"}, {"measurement": "Caspase-9 (ΔOD 405nm)", "setting": "caspase-9; 100 micro molar", "result": "0.53 ± 0.077 ΔOD 405nm"}, {"measurement": "Caspase-9 (ΔOD 405nm)", "setting": "caspase-9; 125 micro molar", "result": "0.70 ± 0.093 ΔOD 405nm"}, {"measurement": "Caspase-9 (ΔOD 405nm)", "setting": "caspase-9; 150 micro molar", "result": "0.89 ± 0.108 ΔOD 405nm"}, {"measurement": "Caspase-9 (ΔOD 405nm)", "setting": "caspase-9; 175 micro molar", "result": "1.18 ± 0.192 ΔOD 405nm"}, {"measurement": "Caspase-9 (ΔOD 405nm)", "setting": "caspase-9; 200 micro molar", "result": "1.34 ± 0.207 ΔOD 405nm"}]}
{"smiles": "COc1cc([C@@H]2Oc3cc([C@H]4Oc5cc(O)cc(O)c5C(=O)[C@@H]4O)ccc3O[C@H]2CO)ccc1O", "note": "[SB, silybin B]", "values": [{"measurement": "ACDase activity in cell extract compared to control", "setting": "Acid ceramidase (ACDase)", "result": "markedly inhibited"}, {"measurement": "Caspase-9 (ΔOD 405nm)", "setting": "caspase-9; 25 micro molar", "result": "0.30 ± 0.048 ΔOD 405nm"}, {"measurement": "Caspase-9 (ΔOD 405nm)", "setting": "caspase-9; 50 micro molar", "result": "0.41 ± 0.055 ΔOD 405nm"}, {"measurement": "Caspase-9 (ΔOD 405nm)", "setting": "caspase-9; 75 micro molar", "result": "0.47 ± 0.070 ΔOD 405nm"}, {"measurement": "Caspase-9 (ΔOD 405nm)", "setting": "caspase-9; 100 micro molar", "result": "0.56 ± 0.067 ΔOD 405nm"}, {"measurement": "Caspase-9 (ΔOD 405nm)", "setting": "caspase-9; 125 micro molar", "result": "0.60 ± 0.083 ΔOD 405nm"}, {"measurement": "Caspase-9 (ΔOD 405nm)", "setting": "caspase-9; 150 micro molar", "result": "0.67 ± 0.105 ΔOD 405nm"}, {"measurement": "Caspase-9 (ΔOD 405nm)", "setting": "caspase-9; 175 micro molar", "result": "0.81 ± 0.126 ΔOD 405nm"}, {"measurement": "Caspase-9 (ΔOD 405nm)", "setting": "caspase-9; 200 micro molar", "result": "0.89 ± 0.114 ΔOD 405nm"}]}
{"smiles": "COc1cc([C@H]2Oc3cc([C@H]4Oc5cc(O)cc(O)c5C(=O)[C@@H]4O)ccc3O[C@@H]2CO)ccc1O", "note": "[SA, silybin A]", "values": [{"measurement": "ACDase activity, effect of cell exposure", "setting": "Acid ceramidase (ACDase); Hep G2, throughout the concentration range (0-200 µM)", "result": "could not alter ACDase activity"}, {"measurement": "inhibition at 200 µM", "setting": "Acid ceramidase (ACDase); HepG2, Hep G2 cell extract, 200 µM", "result": 18, "unit": "%"}, {"measurement": "Caspase-9 (ΔOD 405nm)", "setting": "caspase-9; 25 micro molar", "result": "0.41 ± 0.060 ΔOD 405nm"}, {"measurement": "Caspase-9 (ΔOD 405nm)", "setting": "caspase-9; 50 micro molar", "result": "0.50 ± 0.089 ΔOD 405nm"}, {"measurement": "Caspase-9 (ΔOD 405nm)", "setting": "caspase-9; 75 micro molar", "result": "0.61 ± 0.102 ΔOD 405nm"}, {"measurement": "Caspase-9 (ΔOD 405nm)", "setting": "caspase-9; 100 micro molar", "result": "0.73 ± 0.110 ΔOD 405nm"}, {"measurement": "Caspase-9 (ΔOD 405nm)", "setting": "caspase-9; 125 micro molar", "result": "0.84 ± 0.133 ΔOD 405nm"}, {"measurement": "Caspase-9 (ΔOD 405nm)", "setting": "caspase-9; 150 micro molar", "result": "0.96 ± 0.143 ΔOD 405nm"}, {"measurement": "Caspase-9 (ΔOD 405nm)", "setting": "caspase-9; 175 micro molar", "result": "1.10 ± 0.164 ΔOD 405nm"}, {"measurement": "Caspase-9 (ΔOD 405nm)", "setting": "caspase-9; 200 micro molar", "result": "1.16 ± 0.147 ΔOD 405nm"}]}
{"smiles": "COc1cc([C@H]2Oc3cc([C@H]4Oc5cc(O)cc(O)c5C(=O)[C@@H]4OC(=O)c4cc(O)c(O)c(O)c4)ccc3O[C@@H]2CO)ccc1O", "note": "[SGA, 3-O-galloyl silybin A]", "values": [{"measurement": "ACDase activity in cell extract compared to control", "setting": "Acid ceramidase (ACDase)", "result": "markedly inhibited"}, {"measurement": "Caspase-9 (ΔOD 405nm)", "setting": "caspase-9; 25 micro molar", "result": "0.23 ± 0.029 ΔOD 405nm"}, {"measurement": "Caspase-9 (ΔOD 405nm)", "setting": "caspase-9; 50 micro molar", "result": "0.40 ± 0.053 ΔOD 405nm"}, {"measurement": "Caspase-9 (ΔOD 405nm)", "setting": "caspase-9; 75 micro molar", "result": "0.55 ± 0.070 ΔOD 405nm"}, {"measurement": "Caspase-9 (ΔOD 405nm)", "setting": "caspase-9; 100 micro molar", "result": "0.86 ± 0.136 ΔOD 405nm"}, {"measurement": "Caspase-9 (ΔOD 405nm)", "setting": "caspase-9; 125 micro molar", "result": "0.69 ± 0.103 ΔOD 405nm"}, {"measurement": "Caspase-9 (ΔOD 405nm)", "setting": "caspase-9; 150 micro molar", "result": "0.80 ± 0.124 ΔOD 405nm"}, {"measurement": "Caspase-9 (ΔOD 405nm)", "setting": "caspase-9; 175 micro molar", "result": "1.19 ± 0.147 ΔOD 405nm"}, {"measurement": "Caspase-9 (ΔOD 405nm)", "setting": "caspase-9; 200 micro molar", "result": "1.30 ± 0.167 ΔOD 405nm"}]}
